Values of other authors, collected in publication PMC10352257, “In vivo effects of the alpha-synuclein misfolding inhibitor minzasolmin supports clinical development in Parkinson’s disease” (NPJ Parkinson's Disease, 2023).

Test system: Line 61 transgenic mice
Parameters: method as in PMID 28585223
Details: cited from earlier work

Substance: CLR01
- effect on gait deficits of Line 61 transgenic mice in round beam traversal test: improved
